Where two headings read alike, the source gives them in different places.

The source of these data is paper PMC10683482, “Offsetting Low-Affinity Carbohydrate Binding with Covalency to Engage Sugar-Specific Proteins for Tumor-Immune Proximity Induction” (ACS Central Science, 2023).

In assay [1] the test system is serum polyclonal antirhamnose antibodies (human IgG). As to the kind of experiment: BLI affinity of rhamnose probes for polyclonal human IgG. The assay is classed as binding. The conditions noted are these: for kon: anti-rhamnose assumed 3% of total IgG; for koff: dissociation in 100 mM L-rhamnose. From the text:
We began by synthesizing antirhamnose affinity probes consisting of α-O/α-S and β-S rhamnose glycosides functionalized with a propargyl group for CuAAC-mediated coupling to a biotin TBD (compounds 1–3, Figure 1A and Scheme S1). This enabled rhamnose immobilization onto streptavidin surfaces and subsequent antibody binding studies. We used biolayer interferometry (BLI) to estimate and compare the apparent affinity of serum polyclonal antirhamnose antibodies for each rhamnose affinity probe (Figure 1B). […] Next, biosensors were submerged in a buffer containing free rhamnose competitor, and dissociation kinetics were measured (Figure 1B, Dissociation). The dissociation buffer contained 100 mM rhamnose competitor to inhibit avidity-based antibody rebinding, which interferes with koff measurements. […] In the context of proximity-inducing molecule development, this low monovalent sugar-binding affinity will ultimately limit ternary complex formation. […] The confirmation of low affinity binding also supports why multivalency has been historically required to efficiently engage antirhamnose antibodies for tumor-immune proximity induction and engage sugar binding receptors in general.
Figure 1 Affinity determination of endogenous and monoclonal antibody sources for L-rhamnose glycoside variants. A. Chemical structures of rhamnose affinity probes. B/C. Approximation of antirhamnose antibody binding affinity for probes 1–3 using biolayer interferometry. B. Purified human serum IgG is used to estimate the affinity of endogenous polyclonal serum antirhamnose antibodies for each affinity probe 1–3. C. Monoclonal anti-23F antibody is used to estimate the potential affinity of vaccine-induced antirhamnose antibodies for each affinity probe 1–3. […] Association was monitored for 900 (B) or 600 (C) seconds. The loaded biosensor probe was then dipped into a dissociation solution of 100 mM L-rhamnose for 600 s. Association curves were fit to a two-phase association model in GraphPad Prism using Kfast to calculate kon. Dissociation curves were similarly fit to a two-phase decay using Kfast to calculate koff. TEXT PRINTED IN THE PICTURE: (B) no label printed: Polyclonal Human IgG: Kd ≈ 7 x10^-5 M | (C) no label printed: Monoclonal Anti-23F: Kd ≈ 6 x10^-6 M DOUBTS OF THE COPYIST ABOUT THIS PICTURE: Panel B, Kd ≈ 7 x10^-5 M: printed once in the plot with no link to a single curve, so it is unclear which of (1) α–O, (2) α–S and (3) β–S it applies to / Panel C, Kd ≈ 6 x10^-6 M: printed once in the plot with no link to a single curve, so it is unclear which of (1) α–O, (2) α–S and (3) β–S it applies to […]
General Notes and Materials […]
Biolayer Interferometry (BLI) General notes and Materials
IgG from human serum was purchased from Innovative Research (IHUI GGAP1000MG). Anti -23F antibody was purchased fr om Creative Biolabs (PABX -173). Biolayer Interferometry (BLI) was conducted using a ForteBio Octet Red96, and streptavidin biosensors (Sartorius - 18-5019) or ProG biosensors (Sartorius – 18-5082). For quench, a 5% skim milk (Nestle Carnation Instant Skim Milk) solution in 1X kinetics buffer was used. The instrument was set at 25 °C, with 1000 RPM, and acquisition rate of 5 Hz.
Each well of a black well plate (Greiner Bio -One - 655086) was filled with 200 µL of appropriate solution.
Dissociation buffer was comprised of L-rhamnose (100 mM, Sigma Aldrich – R3875-10G) in 1X kinetics buffer to reduce avidity contribution to dissociation rate (koff).
SDS-PAGE General notes and Materials […]
Carboxyfluorescein was purchased from Sigma Aldrich (21877 -5G-F). IgG from human serum was purchased from Innovative Research (IHUIGGAP1000MG). Anti -23F antibody was purchased from Creative Biolabs (PABX -173). Laemellie Buffer (2x) was purchased from Sigma Aldrich (S3401 -10VL).
Pre-cast Tris-Glycine Gels (4-20%) were purchased from Fisher Scientific (XP04202BOX). Standard protein ladder was purchased from Bio Rad (1610363). […]

Assay [2] concerns human serum antirhamnose antibody (IgG and IgM). The assay is described as follows: ELISA covalent engagement of serum anti-rhamnose antibody. The format is binding. As to conditions: 2 μM compound, 2% human serum, 48 h; rhamnose 100 mM added after incubation. The protocol: Figure 2 Capacity of Rha-cARMs to specifically covalently engage monoclonal anti-23F and serum anti-rhamnose. A. Chemical structures of the molecules investigated. B. Assessment of covalent vs noncovalent (cARM/ARM) engagement of human serum antirhamnose antibody via an ELISA assay. Each ARM/cARM (2 μM) was incubated with 2% human serum for 48 h and subsequently incubated directly on a streptavidin ELISA plate. Recruitment was evaluated by the addition of anti-IgG or anti-IgM HRP-conjugated secondary antibody with subsequent chromogenic substrate addition. “Comp” represents the addition of competitor rhamnose (500 mM) during 48 h of incubation. “Quench” refers to the addition of competitor rhamnose (100 mM) prior to ELISA plate binding but after 48 h of reaction incubation. C. SDS-PAGE fluorescent image of anti-23F antibody covalently labeled by fluorophore substituted Rha-cARMs (6–8). A representative protein stain associated with each gel is included on the left side of the fluorescent gel images. In all cases, 2 μM anti-23F antibody is incubated with 4 μM cARM (2 equiv) for 24 h in PBS spiked with 10% human serum. Where noted, L-rhamnose (100 mM, Rha. C) was used during incubation as a competitor for specific covalent labeling. Where noted, a free fluoresceine competitor (2.5 mM, Fluor. C) was used to distinguish fluorescein-promoted covalent labeling from rhamnose-promoted. The darker background in gels corresponding to cARM 6, 7 is attributed to the differing capacity of free cARM-fluorophore (fluoroscein vs A647) to be retained in gel, as well as an alternative imaging channel (Cy2 for fluorescein, Cy5 for A647). […] D. Kinetic SDS-PAGE fluorescence imaging experiment to determine Rha-AI-cARM/anti-23F antibody labeling kinetics using A647-cARM (8). cARM 8 (2–100 μM) was incubated with anti-23F antibody (2 μM) for up to 4 h. A representative fluorescence gel image is included corresponding to compound 8 (50 μM) incubated with either anti-23F antibody or isotype human IgG. Densitometry analysis with ImageJ was used to quantify relative band intensities. […] The error is calculated by alternative fits of initial rates data (all within the linear labeling range).
Next, we tested if cARM tool compounds can selectively label endogenous human polyclonal antirhamnose antibodies via ELISA (4 α-O rhamnose or 5 α-S rhamnose) (Figure 2B). cARMs (4, 5) and noncovalent analog ARMs (1, 2) were incubated with 2% human serum for 48 h followed by addition to a streptavidin-ELISA plate. Antibody recruitment to the plate surface was measured via the addition of HRP-conjugated anti-IgG or anti-IgM secondary antibody, followed by a chromogenic substrate. […] In the absence of a competitor, we observed robust absorbance signal in samples incubated with cARM. […]
On the technique in general: ELISA stands for enzyme-linked immunosorbent assay.

Assay [3] addresses prostate-specific membrane antigen (PSMA). The conditions noted are these: cited from earlier work.

For orientation: kon means a measure of how fast the partners come together. Read a high kon as fast association. As a reminder, the koff is the rate constant with which the complex falls apart. A high value points to fast dissociation. The term Kd denotes the concentration at which binding is half-saturated. Regarding `C[C@@H]1O[C@H](SCc2cn(CCOCCNC(=O)OCCOCCOCCOCCOCCOCCOCCOCCNC(=O)CCCC[C@@H]3SC[C@@H]4NC(=O)N[C@@H]43)nn2)[C@H](O)[C@H](O)[C@H]1O` [compound 3], the kon was determined as 19771 M⁻¹ s⁻¹ in assay [1] (26.2 µM IgG), 11537 M⁻¹ s⁻¹ in assay [1] (52.5 µM IgG) and 6254 M⁻¹ s⁻¹ in assay [1] (105 µM IgG). Besides, the figures for the koff in assay [1] (26.2 µM IgG), in assay [1] (52.5 µM IgG) and in assay [1] (105 µM IgG) were 0.576 s⁻¹, 0.481 s⁻¹ and 0.3901 s⁻¹, respectively. Moreover, the Kd in assay [1] (26.2 µM IgG, read-out: Kd) worked out at 29 µM; in assay [1] (52.5 µM IgG, read-out: Kd), 42 µM; in assay [1] (105 µM IgG, read-out: Kd), 62 µM; in assay [1] (average of three IgG concentrations, read-out: Avg Kd), 44 ± 17 µM.

For the compound `C[C@@H]1O[C@@H](SCc2cn(CCc3cn(C(=O)OCCOCCOCCOCCOCCOCCOCCOCCNC(=O)CCCC[C@@H]4SC[C@@H]5NC(=O)N[C@@H]54)cn3)nn2)[C@H](O)[C@H](O)[C@H]1O` [compound 5], the “antibody binding signal, quench control” value in assay [2] was “significant antibody binding signal”.

As to glutamate urea [GU], the Kd in assay [3] is less than 0.01 µM.
